Test results taken from PubChem BioAssay (NCI).
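Exposure lasted 48 hours, with cells grown in 96-well plates and compounds tested at five concentrations. Abbreviation: GI50, concentration required for 50% inhibition of growth. TGI: total growth inhibition.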

Experiments:
Experiment in all cases: NCI anticancer screen, dose series, 48 h
A498 renal = test system: A498 renal
HOP-92 NSCLC = test system: HOP-92 NSCLC
MALME-3M melanoma = test system: MALME-3M melanoma
SW-620 colon = test system: SW-620 colon
MDA-MB-435 = test system: MDA-MB-435
M14 melanoma = test system: M14 melanoma
UO-31 renal = test system: UO-31 renal
KM12 colon = test system: KM12 colon
ACHN renal = test system: ACHN renal
U251 CNS = test system: U251 CNS
RXF 393 renal = test system: RXF 393 renal
IGROV1 ovarian = test system: IGROV1 ovarian
SN12C renal = test system: SN12C renal
CCRF-CEM leukemia = test system: CCRF-CEM leukemia
DU-145 prostate = test system: DU-145 prostate
RPMI-8226 leukemia = test system: RPMI-8226 leukemia
OVCAR-3 ovarian = test system: OVCAR-3 ovarian
MCF7 breast = test system: MCF7 breast
NCI-H226 lung = test system: NCI-H226 lung
HCT-116 colon = test system: HCT-116 colon
CAKI-1 renal = test system: CAKI-1 renal
T-47D breast = test system: T-47D breast
SF-295 CNS = test system: SF-295 CNS
UACC-257 melanoma = test system: UACC-257 melanoma
786-0 renal = test system: 786-0 renal
COLO 205 colon = test system: COLO 205 colon
SF-268 CNS = test system: SF-268 CNS
HCT-15 colon = test system: HCT-15 colon
UACC-62 melanoma = test system: UACC-62 melanoma
SNB-19 CNS = test system: SNB-19 CNS
NCI/ADR-RES ovarian = test system: NCI/ADR-RES ovarian
A549 NSCLC = test system: A549 NSCLC
NCI-H23 lung = test system: NCI-H23 lung
LOX IMVI melanoma = test system: LOX IMVI melanoma
EKVX NSCLC = test system: EKVX NSCLC
SK-MEL-28 melanoma = test system: SK-MEL-28 melanoma
BT-549 breast = test system: BT-549 breast
HS 578T breast = test system: HS 578T breast
SK-MEL-5 melanoma = test system: SK-MEL-5 melanoma
OVCAR-4 ovarian = test system: OVCAR-4 ovarian
MDA-MB-231 breast = test system: MDA-MB-231 breast
K-562 leukemia = test system: K-562 leukemia
HOP-62 NSCLC = test system: HOP-62 NSCLC
SNB-75 CNS = test system: SNB-75 CNS
HT29 colon = test system: HT29 colon
HCC-2998 colon = test system: HCC-2998 colon
TK-10 renal = test system: TK-10 renal
SF-539 CNS = test system: SF-539 CNS
MOLT-4 leukemia = test system: MOLT-4 leukemia
NCI-H522 lung = test system: NCI-H522 lung
OVCAR-8 ovarian = test system: OVCAR-8 ovarian
OVCAR-5 ovarian = test system: OVCAR-5 ovarian
PC-3 prostate = test system: PC-3 prostate
NCI-H460 lung = test system: NCI-H460 lung

Cc1ccc(-c2c(C#N)[n+](=O)c3cc(F)c(F)cc3n2[O-])cc1
GI50 (A498 renal): 21.1 µM | TGI (A498 renal): 36.5 µM | GI50 (HOP-92 NSCLC): 1.68 µM | TGI (HOP-92 NSCLC): 3.84 µM | GI50 (MALME-3M melanoma): 2.06 µM | TGI (MALME-3M melanoma): 5.23 µM | GI50 (SW-620 colon): 3.9 µM | TGI (SW-620 colon): 16.1 µM | GI50 (MDA-MB-435): 2.27 µM | TGI (MDA-MB-435): 5.95 µM | GI50 (M14 melanoma): 2.18 µM | TGI (M14 melanoma): 5.73 µM | GI50 (UO-31 renal): 9.79 µM | TGI (UO-31 renal): 37.7 µM | GI50 (KM12 colon): 9.9 µM | TGI (KM12 colon): 28.3 µM | GI50 (ACHN renal): 2.2 µM | TGI (ACHN renal): 5.83 µM | GI50 (U251 CNS): 1.43 µM | TGI (U251 CNS): 2.94 µM | GI50 (RXF 393 renal): 2.63 µM | TGI (RXF 393 renal): 8.91 µM | GI50 (IGROV1 ovarian): 3.59 µM | TGI (IGROV1 ovarian): > 100 µM | GI50 (SN12C renal): 2.61 µM | TGI (SN12C renal): 8.56 µM | GI50 (CCRF-CEM leukemia): 1.6 µM | TGI (CCRF-CEM leukemia): 4.41 µM | GI50 (DU-145 prostate): 14.5 µM | TGI (DU-145 prostate): 30.9 µM | GI50 (RPMI-8226 leukemia): 1.49 µM | TGI (RPMI-8226 leukemia): 6.99 µM | GI50 (OVCAR-3 ovarian): 1.77 µM | TGI (OVCAR-3 ovarian): 3.61 µM | GI50 (MCF7 breast): 5.04 µM | TGI (MCF7 breast): 38.1 µM | GI50 (NCI-H226 lung): 15.7 µM | TGI (NCI-H226 lung): 32.3 µM | GI50 (HCT-116 colon): 1.23 µM | TGI (HCT-116 colon): 5.21 µM | GI50 (CAKI-1 renal): 2.48 µM | TGI (CAKI-1 renal): 5.74 µM | GI50 (T-47D breast): 28.4 µM | TGI (T-47D breast): 67.5 µM | GI50 (SF-295 CNS): 2.01 µM | TGI (SF-295 CNS): 5.27 µM | GI50 (UACC-257 melanoma): 23.5 µM | TGI (UACC-257 melanoma): 48.7 µM | GI50 (786-0 renal): 1.54 µM | TGI (786-0 renal): 3.53 µM | GI50 (COLO 205 colon): 19.5 µM | TGI (COLO 205 colon): 38.6 µM | GI50 (SF-268 CNS): 14.3 µM | TGI (SF-268 CNS): 30 µM | GI50 (HCT-15 colon): 1.2 µM | TGI (HCT-15 colon): 3.75 µM | GI50 (UACC-62 melanoma): 4.25 µM | TGI (UACC-62 melanoma): 16.1 µM | GI50 (SNB-19 CNS): 18.6 µM | TGI (SNB-19 CNS): 34.9 µM | GI50 (NCI/ADR-RES ovarian): 2.83 µM | TGI (NCI/ADR-RES ovarian): 9.2 µM | GI50 (A549 NSCLC): 28.2 µM | TGI (A549 NSCLC): 86 µM | GI50 (NCI-H23 lung): 2.33 µM | TGI (NCI-H23 lung): 6.47 µM | GI50 (LOX IMVI melanoma): > 100 µM | TGI (LOX IMVI melanoma): > 100 µM | GI50 (EKVX NSCLC): 21.2 µM | TGI (EKVX NSCLC): 38.9 µM | GI50 (SK-MEL-28 melanoma): 20.5 µM | TGI (SK-MEL-28 melanoma): 38.4 µM | GI50 (BT-549 breast): 18.5 µM | TGI (BT-549 breast): 33.7 µM | GI50 (HS 578T breast): 25.3 µM | TGI (HS 578T breast): > 100 µM | GI50 (SK-MEL-5 melanoma): 14.2 µM | TGI (SK-MEL-5 melanoma): 28.1 µM | GI50 (OVCAR-4 ovarian): 21.4 µM | TGI (OVCAR-4 ovarian): 41.2 µM | GI50 (MDA-MB-231 breast): 1.81 µM | TGI (MDA-MB-231 breast): 3.98 µM | GI50 (K-562 leukemia): 1.64 µM | TGI (K-562 leukemia): 4.29 µM | GI50 (HOP-62 NSCLC): 5.26 µM | TGI (HOP-62 NSCLC): 19.7 µM | GI50 (SNB-75 CNS): 19.2 µM | TGI (SNB-75 CNS): 34.6 µM | GI50 (HT29 colon): 24.7 µM | TGI (HT29 colon): 61 µM | GI50 (HCC-2998 colon): 10.3 µM | TGI (HCC-2998 colon): 23.5 µM | GI50 (TK-10 renal): 2.37 µM | TGI (TK-10 renal): 6.69 µM | GI50 (SF-539 CNS): 15.3 µM | TGI (SF-539 CNS): 33.9 µM | GI50 (MOLT-4 leukemia): 0.851 µM | TGI (MOLT-4 leukemia): 2.71 µM | GI50 (NCI-H522 lung): 3.43 µM | TGI (NCI-H522 lung): 76.9 µM | GI50 (OVCAR-8 ovarian): 20.8 µM | TGI (OVCAR-8 ovarian): 40.3 µM | GI50 (OVCAR-5 ovarian): 3.91 µM | TGI (OVCAR-5 ovarian): 15.9 µM | GI50 (PC-3 prostate): 1.43 µM | TGI (PC-3 prostate): 3.35 µM | GI50 (NCI-H460 lung): 12.2 µM | TGI (NCI-H460 lung): 30.3 µM
